# In patent US9668995B2, “Treatment of motor fluctuations” (Motac Neuroscience Limited, priority 2000, dated 2017):
# Tested on: MPTP-lesioned marmoset model of Parkinson's disease
# Assay: L-DOPA-induced fluctuations in locomotion in the MPTP-lesioned marmoset model of Parkinson's disease
# Assay type: in vivo, Marmosets (Callithrix jacchus)
# Conditions: 8-OH PIPAT 10 mg/kg co-administered with L-DOPA 8 mg/kg, locomotion assessed every 5 minutes over six hours
# Protocol: The effect of the 5-HT1a-receptor agonist 8-OH-PIPAT on L-DOPA-induced fluctuations in locomotion was assessed in the MPTP-lesioned marmoset model of Parkinson's disease.
# Marmosets (Callithrix jacchus) (bred in a closed colony at the University of Manchester) are rendered parkinsonian by subcutaneous injection of 2 mg kg^−1 MPTP for 5 consecutive days. The marmosets are allowed to recover for a minimum of 10 weeks until their parkinsonism becomes stable.
# A quantitative assessment of locomotor activity was assessed every 5 minutes for the duration of the experiment using computer-based activity monitors.
# Locomotion was measured over a six hour period using Benwick activity monitors. These locomotion monitors consist of a visually-shielded open-field arena, the perimeter of which is surrounded by a series of infra-red beams arranged at 5 cm intervals. PC-based software (Amlogger) assesses the number of beams broken. The number of beams broken as part of a locomotor movement (mobile counts) was measured.
# Marmosets were split into two groups. The first group received L-DOPA (8 mg/kg) and vehicle for 8-OH PIPAT only whereas the second group received L-DOPA (8 mg/kg) and 8-OH PIPAT (10 mg/kg).
smiles,measurement,value
"CCCN(C/C=C/I)C1CCc2cccc(O)c2C1 (racemic) [8-OH-PIPAT, (RS)-trans-8-hydroxy-2-[N-n-propyl-N-(3′-iodo-2′-propenyl)amino]tetralin]","L-DOPA-stimulated 'on-time' (locomotor activity, mobile counts)",increase in L-DOPA-stimulated ‘on-time’
